# Assays:
# [1] = system: GAT-HRA soybeans; assay: Postemergence herbicide treatment of soybeans in greenhouse, visual injury; format: in vivo, soybean; conditions: postemergence, glyphosate 8960, tribenuron-methyl 35, rimsulfuron 35 g/ha
# Experimental: (§1) Young regenerated transgenic plants were sprayed with 1× glyphosate (1× rate of glyphosate is 1120 g/ha of glyphosate isopropylamine) to cull segregants. Four replications were performed for each treatment. Plants were then treated with various herbicides, including glyphosate and ALS-inhibitor herbicides.
# (§2) Six soybean seeds from each variety to be assayed were planted 1 cm deep in 5.5 (13.97 cm) inch square plastic container of a synthetic growth medium. […] When possible, containers were thinned to two uniform plants. Non-transgenic lines were thinned to two uniform plants per container.
# (§3) Results are expressed below in Table 11 as the mean of four replications.
# [2] = system: Wild Type soybeans (Jack); assay: as above; format: in vivo, soybean; conditions: postemergence, glyphosate 8960, tribenuron-methyl 35, rimsulfuron 35 g/ha
# Experimental: as §1, §2, §3
# [3] = system: Heterozygous GAT-HRA corn; assay: Postemergence herbicide application in greenhouse: fresh shoot weight and visual injury; format: in vivo
# [4] = system: parent elite stiff stalk inbred corn; assay: as above; format: in vivo
# [5] = system: Non-glyphosate resistant Conyza (Welgevallen-paraquat resistant); assay: Control of hairy fleabane by glyphosate, metsulfuron-methyl and two additives; format: in vivo, Conyza bonariensis; conditions: glyphosate on its own; 10-15 leaf stage
# Experimental: This example included the same treatments as used in Example 11, except the treatments were carried out on a glyphosate sensitive biotype of Kleinskraalhans (Conyza bonariensis). […] In this example, however, ammonium sulfate-based adjuvant (ADD-UP®) preformed better than bispyribac-sodium (VELOCITY®) with the mixture.
# • Biotype: Non-glyphosate resistant Conyza (Welgevallen-paraquat resistant) • Growth Stage: 10-15 leaf stage • Condtions: Cool and sunny • Volume rate: 200 L ha^−1 • glyphosate (ROUNDUP): 360 g a.i. L^−1
# [6] = system: Untransformed Coker 312 cotton; assay: Greenhouse over the top herbicide spray of cotton; format: in vivo, Gossypium hirsutum; conditions: glyphosate 1.5 lb ae/acre, 2 weeks after application; rimsulfuron 16 g active ingredient/hectare without glyphosate
# Source text: (§4) Transformed cotton plants were rooted and then transferred to soil for further growth. Plants were then subjected to herbicide spray treatments in a greenhouse. […] Untransformed Coker 312 control plants were dead 2 weeks after glyphosate application. […] Plants transformed with both GAT and HRA were further subjected to an “over the top” application of the sulfonylurea herbicide rimsulfuron at a rate of 16 g active ingredient/hectare. […] In further experiments 32 g ai/ha rimsulfuron were applied to the cotton.
# [7] = system: GAT-HRA transgenic cotton plants; assay: Greenhouse over the top herbicide spray of cotton; format: in vivo, Gossypium hirsutum; conditions: glyphosate 1.5 lb acid equivalent per acre at 4-6 leaf stage; 14 days after application
# Source text: as §4
# [8] = system: STS ® soybeans; assay: Postemergence herbicide treatment of soybeans in greenhouse, visual injury; format: in vivo, soybean
# Source text: When possible, containers were thinned to two uniform plants.
# [9] = system: non-transformed GS3 embryos; assay: Glyphosate kill curve on culture media; format: cell-based, maize; conditions: about 40 days culture
# Experimental: A glyphosate kill curve was established by testing non-transformed embryos response on media with different levels of glyphosate. GS3 embryos were isolated from an immature ear and placed onto media containing glyphosate at 0.0, 0.5, 1.0, and 2.0 mM. After about 40 days culture, the response of the embryos were observed and recorded. Similarly, infected GS3 embryos with the GAT construct were placed onto media containing glyphosate at 0.0, 0.5, 1.0, and 2.0 mM. After about 40 days culture, the response of the infected embryos were observed and recorded (FIG. 7).
# [10] = Zea mays, post-emergence, […], read-out: % Visual Injury
compound,measurement,setting,value
"O=C(O)CNCP(=O)(O)O [Glyphosate, N-phosphonomethylglycine]",% Visual Injury,"[1]; event 59, mean",38%
same,% Visual Injury,[1]; event 59 line 21,40%
same,% Visual Injury,[1]; event 59 line 28,37%
same,% Visual Injury,"[1]; event 60, mean",15%
same,% Visual Injury,[1]; event 60 line 07,19%
same,% Visual Injury,[1]; event 60 line 11,11%
same,% Visual Injury,[1]; event 60 line 22,11%
same,% Visual Injury,[1]; event 60 line 35,9%
same,% Visual Injury,[1]; event 60 line 41,13%
same,% Visual Injury,[1]; event 60 line 46,20%
same,% Visual Injury,[1]; event 60 line 70,9%
same,% Visual Injury,[1]; event 60 line 75,14%
same,% Visual Injury,[1]; event 60 line 77,19%
same,% Visual Injury,[1]; event 60 line 79,18%
same,% Visual Injury,[1]; event 60 line 82,20%
same,% Visual Injury,[1]; event 60 line 84,22%
same,% Visual Injury,"[1]; event 61, mean",20%
same,% Visual Injury,[1]; event 61 line 02,10%
same,% Visual Injury,[1]; event 61 line 02B,10%
same,% Visual Injury,[1]; event 61 line 05,11%
same,% Visual Injury,[1]; event 61 line 14,10%
same,% Visual Injury,[1]; event 61 line 18,10%
same,% Visual Injury,[1]; event 61 line 24,60%
same,% Visual Injury,[1]; event 61 line 33,84%
same,% Visual Injury,[1]; event 61 line 34,23%
same,% Visual Injury,[1]; event 61 line 47,15%
same,% Visual Injury,[1]; event 61 line 49,9%
same,% Visual Injury,[1]; event 61 line 51,10%
same,% Visual Injury,[1]; event 61 line 60,16%
same,% Visual Injury,[1]; event 61 line 62,6%
same,% Visual Injury,[1]; event 61 line 99,10%
same,% Visual Injury,"[1]; event 64, mean",14%
same,% Visual Injury,[1]; event 64 line 41,20%
same,% Visual Injury,[1]; event 64 line 47,10%
same,% Visual Injury,[2]; Wild Type line 82,100%
same,% Visual Injury,[2]; Wild Type line Jack,100%
same,% Visual Injury,"[2]; Wild Type, mean",100%
same,pest or weed control at 200 g/ha,[3]; [10],10%
same,Fresh Weight,"[3]; postemergence, 200 g/ha (glyphosate 3472 g ae/ha, glufosinate ammonium 1870 g/ha), weighed 2 weeks after treatment, mean of four replications, untreated 98.8 g",97.4 g
same,pest or weed control at 200 g/ha,[4]; [10],100%
same,Fresh Weight,"[4]; postemergence, 200 g/ha (glyphosate 3472 g ae/ha, glufosinate ammonium 1870 g/ha), weighed 2 weeks after treatment, mean of four replications, untreated 76.4 g",1.0 g
same,plants killed,[5],1 out of 16
same,"plants killed, percentage in brackets",[5],12%
same,damage to untransformed control plants,[6],dead
same,transgenic plants showing no deleterious symptoms,[7],approximately 50%
same,% Visual Injury,"[8]; STS ® line 25, glyphosate 8960, tribenuron-methyl 35, rimsulfuron 35 g/ha",100%
same,% Visual Injury,"[8]; STS ® line 46, glyphosate 8960, tribenuron-methyl 35, rimsulfuron 35 g/ha",100%
same,% Visual Injury,"[8]; STS ®, mean, glyphosate 8960, tribenuron-methyl 35, rimsulfuron 35 g/ha",100%
same,callus growth of embryos,[9]; media containing 1.0 and 2.0 mM glyphosate,very little callus growth
same,embryos showing callus initiation,[9]; medium with 0.5 mM glyphosate,about half

# Source: patent publication US7803992B2, “Methods and compositions for expressing an herbicide-tolerant polynucleotide” (Pioneer Hi-Bred International, Inc., priority 2005, dated 2010)
